In PMC4718506 (Bioscience Reports, 2016):
Where no end group is shown, it is not given here.

How the values were obtained:
[1] = test system: glucagon receptor mutant Asp-385^7.41–Glu; settings: Asp-385^7.41–Glu glucagon receptor; cited from earlier work
Excerpt: […]. These Arg-310^5. ...

[2] = test system: GLP-1R; settings: truncation of first two residues of GLP-1; cited from earlier work
[3] = test system: GLP-1R; settings: truncation of first two residues of GLP-1; cited from earlier work; remark: listed apart in the source
[4] = test system: glucagon receptor; settings: cited from earlier work
Excerpt: (§1) This putative salt bridge may play an important structural role, the disruption of which could result in a disturbance of the agonist-binding site formed by other residues in ECL2.

[5] = test system: glucagon receptor with upper half replaced by GLP-1R; settings: upper half of glucagon receptor replaced with GLP-1R; cited from earlier work
[6] = test system: glucagon receptor with region (ECL2 and neighbouring helical regions) replaced by GLP-1R equivalent; settings: ECL2 and neighbouring helical regions replaced with GLP-1R equivalent; cited from earlier work
Excerpt: as §1

[7] = test system: hGLP-1R double-Ala mutants (four sites, TM4/ECL2/TM5); experiment: Radioligand binding, double-Ala scan; design: species or system human; settings: 75 pM 125I-GLP-1, >10,000-fold unlabelled GLP-1 competitor; four sites of double-Ala scan; data in Table S2
Procedure: Flp-In HEK293 cells, cultured to confluence on five 160-cm^2 Petri dishes (pre-coated with poly-D-lysine), were washed with PBS, followed by the addition of 15 ml of ice-cold sterile double distilled water to induce cell lysis. Following 5 min incubation on ice, the ruptured cells were thoroughly washed with ice-cold PBS before being scraped from the plates and pelleted by centrifugation in a bench-top centrifuge (13,000 g for 30 min). The crude membrane pellet was resuspended in 1 ml membrane-binding solution (MBS; 50 mM HEPES pH 7.4, 2.5 mM CaCl2, 5 mM MgCl2, 0.2% BSA) and forced through a 23G needle. Aliquots (0.1 ml) were snap-frozen in liquid nitrogen and stored at −70°C. When required for assay, membranes were slowly thawed on ice before diluting to a concentration that gave total radioligand binding of <10% total counts added. […] Assays were carried out for 1 h in MultiScreen 96-well Filtration Plates (Glass fibre filters, 0.65 μm pore size, Millipore) pre-soaked in 1% non-fat milk/PBS. After the incubation, membrane-associated radioligand was harvested by transferring the assay mixture to the filtration plate housed in a vacuum manifold. […]
Binding and cAMP assays were carried out with triplicate values at each ligand concentration and with each assay being repeated at least three times. The resultant data were analysed using Prism 6 (GraphPad Software Inc.).

[8] = test system: GLP-1R mutant Arg-190^2.60–Ala; settings: cited from earlier work
[9] = test system: GLP-1R mutant Arg-190^2.60–Ala; settings: cited from earlier work; remark: listed apart in the source

**Q.** With “Ala-2–glucagon: Ser-2* of glucagon replaced (equivalent of Ala-8* in GLP-1)” as the substance, how does the “effect on affinity and potency” value [1] read?
**A.** The value was “improve the affinity and potency”.

**Q.** What does the source list for “GLP-1(9–36)amide: Truncation of the first two residues of GLP-1 (EGTFTSDVSSYLEGQAAKEFIAWLVKGR-NH2; UniProt P01275 100-127, looked up, fragment)”?
**A.** affinity [2]: reduced affinity; efficacy [3]: substantial loss of efficacy

**Q.** For “Glu-3–glucagon: native glucagon has Gln-3*”, which affinity and potency [4] is on record?
**A.** Its affinity and potency is “reduced affinity and potency”.

**Q.** What about the affinity and potency [5] of the same substance?
**A.** Its affinity and potency is “could be rescued”.

**Q.** What does the source list for “Ser-12–glucagon: Lys-12* in native glucagon, equivalent of Ser-18* in GLP-1”?
**A.** affinity and potency [6]: could be rescued; affinity and potency [4]: reduced affinity and potency

**Q.** With “^125I-GLP-1: radioligand, kind gift of Novo Nordisk” as the substance, how does the specific binding [7] read?
**A.** Its specific binding is “reduced specific binding”.

**Q.** For glucagon: native glucagon, which “effect on affinity and potency” value [1] is on record?
**A.** Its value is “reducing the affinity and potency”.

**Q.** Which results are given for “oxyntomodulin: has Gln at the 3rd position rather than Glu”?
**A.** effect on affinity [8]: did not reduce oxyntomodulin affinity or efficacy; effect on efficacy [9]: did not reduce oxyntomodulin affinity or efficacy
